Measured values taken from patent US7276532B2, “Remedies for vesical hyperactivity” (Kyowa Hakko Kogyo Co., Ltd., priority 2001, dated 2007).

Legend:
[1] = tested on: spinal cord-injured rats; assay: Inhibitory activity on detrusor hyperreflexia (cystometry test); format: in vivo, rat; settings: average ± standard error
Protocol: The experiment was carried out according to the method of Cheng, et al. [Brain Res., Vol. 678, pp. 40-48 (1995)].
(§1) Female SD rats of 8 to 10 weeks of age (supplied by Japan SLC) were used in the test. Five to seven animals of these rats were put in each metal cage and reared by allowing them to freely take commercially available chow and water, in an animal room at room temperature between 19 and 25° C. and humidity between 30 and 70% under illumination for 12 hours (from 7:00 a.m. to 7:00 p.m.) per day.
An operation of spinal cord injury was performed in the rats. Each animal was anesthetized with diethyl ether and the skin of the back side thoracic cord part was incised. A laminectomy at the 7th to 8th thoracic vertebrae level was performed. Then, the thoracic cord at the T7-T8 segments was macroscopically cut and a section of spinal cord (about 5 mm) was removed, and the wound cavity of the removed part was filled with oxidized regenerated cellulose for hemostasis. The incised part was sutured with a surgical silk. After the spinal cord injury operation, urine was expressed manually twice per day (at 8:00-9:00 and 18:00-19:00) for about 3 weeks until autonomic micturition developed. An antibiotic (ampicillin, Sigma. Chemical Co.) was intramuscularly administered to the animals at a dose of 150 mg/kg once to twice per day for about 2 weeks.
(§2) Four to five weeks after the spinal cord injury, the rats were subjected to bladder catheterization. Under diethyl ether anesthesia, the bladder was exposed by midline incision of the abdomen. […] The bladder catheter was fixed with a surgical silk ligature and indwelled. The other end of the catheter was exposed subcutaneously from the back of the neck, plugged and then fixed to the skin with a surgical thread.
Four to six days after the bladder catheterization, a cystometry test was performed. The rats were put in a Bollman cage (Natsume Seisakusho Co., Ltd.) and a three-way cock was connected to the bladder catheter, one end of the cock was connected to a pressure transducer (Nihon Kohden Corp.) and the other end was connected to a 50-mL syringe (Terumo Corp.) arranged to an infusion pump (Harvard Apparatus, Inc.) for physiological saline infusion. The intravesical pressure signal from the pressure transducer was amplified with a strain pressure amplifier (AP-601G, Nihon Kohden Corp.) connected thereto, and was recorded on a thermal array recorder (RTA-1200, Nihon Kohden Corp.) via a polygraph system (RMP-6008, Nihon Kohden Corp.) containing the above amplifier. Sixty to ninety minutes after the completion of the preparation for the measurement, a room temperature physiological saline was infused into the bladder at a flow rate of 10 mL/h for 30 minutes, the occurence of micturition contractions was confirmed. Thirty minutes later, the infusion of physiological saline was carried out again for 30 minutes, and the intravesical pressure was measured to be used as the pre-administration value. Each of Compounds 1 to 6 was suspended in a 0.5 w/v % aqueous solution of methylcellulose at a concentration of 1 mg/mL suspension. The suspension was further diluted with a 0.5 w/v % aqueous solution of methylcellulose to prepare a suspension or solution for the administration at the intended concentration, which was then orally administered to the animals at a volume of 1 mL/kg. The period of 1, 3 and 5 hours after the dosing was used as the measuring time after the administration of the solvent or a compound tested, and the intravesical infusion of a physiological saline was carried out during a duration of 15 minutes around each measuring time (i.e. from 45 to 75 minutes, from 165 to 195 minutes and from 285 to 315 minutes after the administration of the compound).
Micturition contraction was measured as an index of the voiding function and pre-micturition contraction was measured as an index of detrusor hyperreflexia. […]

[2] = tested on: rats with bladder hypertrophy; assay: Inhibitory activity on detrusor instability (cystometry test after partial urethral obstruction); format: in vivo, rat; settings: average ± standard error
Protocol: The experiment was carried out according to the method of Malmgren, et al. [J. Urol., Vol. 142, pp. 1134-1138 (1989)].
as §1, with “(7:00 a.m.-7:00” for “(from 7:00 a.m. to 7:00”
The rats were subjected to operation of partial urethral obstruction. Each animal was anesthetized by intraperitoneal administration of 50 mg/kg pentobarbital sodium (Dainippon Pharmaceutical Co., Ltd.), and the midline incision of the skin and muscle was made in the lower abdomen. A polyethylene tube (PE-20, Nippon Becton Dickinson Co., Ltd.) was inserted into urethra from the urethral to the bladder neck. After the proximal urethra was peeled and double-ligated, the polyethylene tube was pulled out to cause partial urethral obstruction. The incised part was-sutured with a surgical silk thread. An antibiotic (ampicillin, Sigma Chemical Co.) was intramusclarly administered to the animals at a dose of 150 mg/kg.
as §2, with “Six” for “Four to five”, “operation of the partial urethral obstruction,” for “spinal cord injury,”, “rats with bladder hypertrophy” for “rats”, “anesthesia with pentobarbital sodium,” for “diethyl ether anesthesia,”
Four to six days after the bladder catheterization, a cystometry test was performed. The rats were put in a Bollman cage (Natsume Seisakusho Co., Ltd.) and a three-way cock was connected to the bladder catheter, one end of the cock was connected to a pressure transducer (Nihon Kohden Corp.) and the other end was connected to a 50-mL syringe (Terumo Corp.) arranged to an infusion pump (Harvard Apparatus, Inc.) for physiological saline infusion. The intravesical pressure signal from the pressure transducer was amplified with a strain pressure amplifier (AP-601G, Nihon Kohden Corp.) connected thereto, and was recorded on a thermal array recorder (RTA-1200, Nihon Kohden Corp.) via a polygraph system (RMP-6008, Nihon Kohden Corp.) containing the above amplifier. Sixty to ninety minutes after the completion of the preparation for the measurement, intravesical infusion of a room temperature physiological saline at a flow rate of 10 mL/h was started and continued until the completion of the test, and the occurrence of micturition contractions and pre-micturition contractions were confirmed. The chart for 30 minutes after 3 hours from the commencement of the saline infusion was used as the values before the drug administration. Each of Compounds 1 to 3 was suspended in a 0.5 w/v % aqueous solution of methylcellulose at a concentration of 1 mg/mL. The suspension was further diluted with a 0.5 w/v % aqueous solution of methylcellulose to prepare a suspension or solution for the administration at the intended concentration. This was then orally administered to the animals at a volume of 1 mL/kg. The period of 1, 3 and 5 hours after the dosing was used as the measuring time after the administration of the solvent or a compound tested, and a duration of 15 minutes around each measuring time (45 to 75 minutes, 165 to 195 minutes and 285 to 315 minutes after the administration of the compound) was used as the measuring period.
Micturition contraction was used as an index of the voiding function and pre-micturition contraction was measure as an index of detrusor instability. […]

## COc1ccc2c(c1)CS(=O)(=O)c1cccc(NC(=O)C(C)(O)C(F)(F)F)c1C2=O (stereo not drawn) [Compound 2]
[1]; 3 mg/kg p.o., after 1 hr.
  micturition contractions (relative value, before administration = 100): 94.9 ± 14.3%
  pre-micturition contractions (relative value, before administration = 100): 55.1 ± 7.3%
[1]; 3 mg/kg p.o., after 3 hrs.
  micturition contractions (relative value, before administration = 100): 93.6 ± 16.7%
  pre-micturition contractions (relative value, before administration = 100): 80.2 ± 23.6%
[1]; 3 mg/kg p.o., after 5 hrs.
  micturition contractions (relative value, before administration = 100): 99.4 ± 9.0%
  pre-micturition contractions (relative value, before administration = 100): 66.8 ± 14.5%
[2]; 3 mg/kg p.o., after 1 hr.
  micturition contractions (relative value, before administration = 100): 104.5 ± 2.0%
  pre-micturition contractions (relative value, before administration = 100): 67.5 ± 7.9%
[2]; 3 mg/kg p.o., after 3 hrs.
  micturition contractions (relative value, before administration = 100): 101.9 ± 5.9%
  pre-micturition contractions (relative value, before administration = 100): 66.9 ± 8.5%
[2]; 3 mg/kg p.o., after 5 hrs.
  micturition contractions (relative value, before administration = 100): 100.9 ± 5.5%
  pre-micturition contractions (relative value, before administration = 100): 74.7 ± 7.6%

## CC(C)(C(=O)[O-])C(=O)Nc1cccc2c1C(=O)c1sccc1CS2(=O)=O.[Na+] [Compound 3]
[1]; 1 mg/kg p.o., after 1 hr.
  micturition contractions (relative value, before administration = 100): 109.3 ± 5.7%
  pre-micturition contractions (relative value, before administration = 100): 66.2 ± 15.8%
[1]; 1 mg/kg p.o., after 3 hrs.
  micturition contractions (relative value, before administration = 100): 109.5 ± 8.2%
  pre-micturition contractions (relative value, before administration = 100): 65.3 ± 24.9%
[1]; 1 mg/kg p.o., after 5 hrs.
  micturition contractions (relative value, before administration = 100): 111.4 ± 5.6%
  pre-micturition contractions (relative value, before administration = 100): 52.3 ± 13.7%
[2]; 10 mg/kg p.o., after 1 hr.
  micturition contractions (relative value, before administration = 100): 96.8 ± 6.3%
  pre-micturition contractions (relative value, before administration = 100): 62.4 ± 7.1%
[2]; 10 mg/kg p.o., after 3 hrs.
  micturition contractions (relative value, before administration = 100): 95.7 ± 4.7%
  pre-micturition contractions (relative value, before administration = 100): 49.1 ± 6.3%
[2]; 10 mg/kg p.o., after 5 hrs.
  micturition contractions (relative value, before administration = 100): 92.2 ± 4.6%
  pre-micturition contractions (relative value, before administration = 100): 51.8 ± 3.5%

## C[C@](O)(C(=O)Nc1cccc2c1C(=O)c1sccc1CO2)C(F)(F)F [Compound 4]
[1]; 1 mg/kg p.o., after 1 hr.
  micturition contractions (relative value, before administration = 100): 95.5 ± 8.2%
  pre-micturition contractions (relative value, before administration = 100): 58.6%
[1]; 1 mg/kg p.o., after 3 hrs.
  micturition contractions (relative value, before administration = 100): 106.2 ± 7.0%
  pre-micturition contractions (relative value, before administration = 100): 44.4%
[1]; 1 mg/kg p.o., after 5 hrs.
  micturition contractions (relative value, before administration = 100): 121.4 ± 9.5%
  pre-micturition contractions (relative value, before administration = 100): 42.6%

## CC(C)(C)C(=O)Nc1cccc2c1C(=O)c1sccc1CO2 [Compound 5]
[1]; 1 mg/kg p.o., after 1 hr.
  micturition contractions (relative value, before administration = 100): 96.8 ± 4.4%
  pre-micturition contractions (relative value, before administration = 100): 86.2 ± 10.2%
[1]; 1 mg/kg p.o., after 3 hrs.
  micturition contractions (relative value, before administration = 100): 109.4 ± 6.4%
  pre-micturition contractions (relative value, before administration = 100): 57.3 ± 9.2%
[1]; 1 mg/kg p.o., after 5 hrs.
  micturition contractions (relative value, before administration = 100): 113.9 ± 15.4%
  pre-micturition contractions (relative value, before administration = 100): 44.8 ± 6.1%

## CC(O)(C(=O)Nc1ccc(Cl)c2c1C(=O)c1sccc1CS2(=O)=O)C(F)(F)F (stereo not drawn) [Compound 6]
[1]; 1 mg/kg p.o., after 1 hr.
  micturition contractions (relative value, before administration = 100): 96.8 ± 4.4%
  pre-micturition contractions (relative value, before administration = 100): 62.7 ± 9.3%
[1]; 1 mg/kg p.o., after 3 hrs.
  micturition contractions (relative value, before administration = 100): 109.4 ± 6.4%
  pre-micturition contractions (relative value, before administration = 100): 87.9 ± 16.9%
[1]; 1 mg/kg p.o., after 5 hrs.
  micturition contractions (relative value, before administration = 100): 113.9 ± 15.4%
  pre-micturition contractions (relative value, before administration = 100): 69.0 ± 11.8%
